Data as given in ChEMBL document CHEMBL5143550, “Thiol- and Disulfide-Containing Vancomycin Derivatives Against Bacterial Resistance and Biofilm Formation” (2021).
Converted amounts (≈) assume the structure as drawn.

Columns and labels:
Assay type in all cases: functional
Staphylococcus aureus [1] = test: Antibacterial activity against Staphylococcus aureus ATCC 25923 assessed as inhibition of bacterial growth by standard broth microdilution susceptibility method
Staphylococcus aureus [2] = test: Antibacterial activity against methicillin-resistant Staphylococcus aureus ATCC 43300 assessed as inhibition of bacterial growth by standard broth microdilution susceptibility method
Staphylococcus aureus [3] = test: Antibacterial activity against vancomycin-intermediate Staphylococcus aureus ATCC NRS1 assessed as inhibition of bacterial growth by standard broth microdilution susceptibility method
Staphylococcus aureus [4] = test: Antibacterial activity against heterogenous vancomycin-intermediate Staphylococcus aureus ATCC NRS24 assessed as inhibition of bacterial growth by standard broth microdilution susceptibility method
Enterococcus faecium = test: Antibacterial activity against VanA-resistant Enterococcus faecium MMX0485 assessed as inhibition of bacterial growth by standard broth microdilution susceptibility method
Enterococcus faecalis [5] = test: Antibacterial activity against VanB-resistant Enterococcus faecalis ATCC 51299 assessed as inhibition of bacterial growth by standard broth microdilution susceptibility method
Enterococcus gallinarum = test: Antibacterial activity against VanC-resistant Enterococcus gallinarum ATCC 700221 assessed as inhibition of bacterial growth by standard broth microdilution susceptibility method
Streptococcus pneumoniae = test: Antibacterial activity against […] assessed as inhibition of bacterial growth by standard broth microdilution susceptibility method
Clostridioides difficile = test: Antibacterial activity against Clostridium difficile ATCC 43255 assessed as inhibition of bacterial growth by standard broth microdilution susceptibility method
Moraxella catarrhalis = test: Antibacterial activity against Moraxella catarrhalis ATCC 8193 assessed as inhibition of bacterial growth by standard broth microdilution susceptibility method
Enterococcus faecalis [6] = test: Antibiofilm activity against VanB-resistant Enterococcus faecalis ATCC 51299 assessed as inhibition of biofilm formation in BHIG medium incubated for 24 hrs by resazurin assay
Enterococcus faecalis [7] = test: Antibiofilm activity against VanB-resistant Enterococcus faecalis ATCC 51299 assessed as inhibition of biofilm formation by measuring decrease in RFU in BHIG medium incubated for 24 hrs by resazurin assay
Enterococcus faecalis [8] = test: Antibacterial activity against VanB-resistant Enterococcus faecalis ATCC 51299 assessed as inhibition of colony formation in BHIG medium incubated for 24 hrs by resazurin assay
Enterococcus faecalis [9] = test: Antibacterial activity against VanB-resistant Enterococcus faecalis ATCC 51299 assessed as inhibition of bacterial growth in BHIG medium incubated for 24 hrs by resazurin assay

SMILES: CN[C@H](CC(C)C)C(=O)N[C@H]1C(=O)N[C@@H](CC(N)=O)C(=O)N[C@H]2C(=O)N[C@H]3C(=O)N[C@H](C(=O)N[C@H](C(=O)NCCSSCCNC(=O)CCCCC4CCSS4)c4cc(O)cc(O)c4-c4cc3ccc4O)[C@H](O)c3ccc(c(Cl)c3)Oc3cc2cc(c3O[C@@H]2O[C@H](CO)[C@@H](O)[C@H](O)[C@H]2O[C@H]2C[C@](C)(N)[C@H](O)[C@H](C)O2)Oc2ccc(cc2Cl)[C@H]1O (stereo partly specified)
- MIC (Staphylococcus aureus [1]): 2 µg/mL (≈ 1.13 µM)
- MIC (Staphylococcus aureus [2]): 2 µg/mL (≈ 1.13 µM)
- MIC (Staphylococcus aureus [3]): 2 µg/mL (≈ 1.13 µM)
- MIC (Staphylococcus aureus [4]): 2 µg/mL (≈ 1.13 µM)
- MIC (Enterococcus faecium): > 32 µg/mL
- MIC (Enterococcus faecalis [5]): 4 µg/mL (≈ 2.26 µM)
- MIC (Enterococcus gallinarum): 8 µg/mL (≈ 4.52 µM)
- MIC (Streptococcus pneumoniae): 0.25 µg/mL (≈ 0.141 µM)
- MIC (Clostridioides difficile): 0.5 µg/mL (≈ 0.282 µM)
- MIC (Moraxella catarrhalis): 8 µg/mL (≈ 4.52 µM)
- MBIC (Enterococcus faecalis [6]): 16 µg/mL
- inhibition (INH) (Enterococcus faecalis [7]): 100%
- Activity (Enterococcus faecalis [8]): 16 µg/mL
- inhibition (INH) (Enterococcus faecalis [9]): 100%

SMILES: CN[C@H](CC(C)C)C(=O)N[C@H]1C(=O)N[C@@H](CC(N)=O)C(=O)N[C@H]2C(=O)N[C@H]3C(=O)N[C@H](C(=O)N[C@H](C(=O)NCCSSCCN)c4cc(O)cc(O)c4-c4cc3ccc4O)[C@H](O)c3ccc(c(Cl)c3)Oc3cc2cc(c3O[C@@H]2O[C@H](CO)[C@@H](O)[C@H](O)[C@H]2O[C@H]2C[C@](C)(N)[C@H](O)[C@H](C)O2)Oc2ccc(cc2Cl)[C@H]1O
- MIC (Staphylococcus aureus [1]): 1 µg/mL (≈ 0.631 µM)
- MIC (Staphylococcus aureus [2]): 1 µg/mL (≈ 0.631 µM)
- MIC (Staphylococcus aureus [3]): 1 µg/mL (≈ 0.631 µM)
- MIC (Staphylococcus aureus [4]): 1 µg/mL (≈ 0.631 µM)
- MIC (Enterococcus faecium): 8 µg/mL (≈ 5.05 µM)
- MIC (Enterococcus faecalis [5]): 8 µg/mL (≈ 5.05 µM)
- MIC (Enterococcus gallinarum): 8 µg/mL (≈ 5.05 µM)
- MIC (Streptococcus pneumoniae): ≤ 0.03 µg/mL
- MIC (Clostridioides difficile): 0.5 µg/mL (≈ 0.316 µM)
- MIC (Moraxella catarrhalis): > 32 µg/mL
- MBIC (Enterococcus faecalis [6]): 16 µg/mL
- inhibition (INH) (Enterococcus faecalis [7]): 86%
- Activity (Enterococcus faecalis [8]): 16 µg/mL
- inhibition (INH) (Enterococcus faecalis [9]): 98%

SMILES: CN[C@H](CC(C)C)C(=O)N[C@H]1C(=O)N[C@@H](CC(N)=O)C(=O)N[C@H]2C(=O)N[C@H]3C(=O)N[C@H](C(=O)N[C@H](C(=O)NCCOCCNC(=O)CCCCC4CCSS4)c4cc(O)cc(O)c4-c4cc3ccc4O)[C@H](O)c3ccc(c(Cl)c3)Oc3cc2cc(c3O[C@@H]2O[C@H](CO)[C@@H](O)[C@H](O)[C@H]2O[C@H]2C[C@](C)(N)[C@H](O)[C@H](C)O2)Oc2ccc(cc2Cl)[C@H]1O (stereo partly specified)
- MIC (Staphylococcus aureus [1]): 4 µg/mL (≈ 2.32 µM)
- MIC (Staphylococcus aureus [2]): 2 µg/mL (≈ 1.16 µM)
- MIC (Enterococcus faecalis [5]): 4 µg/mL (≈ 2.32 µM)
- MIC (Enterococcus gallinarum): 8 µg/mL (≈ 4.64 µM)
- MBIC (Enterococcus faecalis [6]): 8 µg/mL
- inhibition (INH) (Enterococcus faecalis [7]): 97%
- Activity (Enterococcus faecalis [8]): 8 µg/mL
- inhibition (INH) (Enterococcus faecalis [9]): 100%

SMILES: CN[C@H](CC(C)C)C(=O)N[C@H]1C(=O)N[C@@H](CC(N)=O)C(=O)N[C@H]2C(=O)N[C@H]3C(=O)N[C@H](C(=O)N[C@H](C(=O)O)c4cc(O)cc(O)c4-c4cc3ccc4O)[C@H](O)c3ccc(c(Cl)c3)Oc3cc2cc(c3O[C@@H]2O[C@H](CO)[C@@H](O)[C@H](O)[C@H]2O[C@H]2C[C@](C)(N)[C@H](O)[C@H](C)O2)Oc2ccc(cc2Cl)[C@H]1O [VANCOMYCIN]
- MIC (Staphylococcus aureus [3]): 8 µg/mL (≈ 5.52 µM)
- MIC (Staphylococcus aureus [4]): 16 µg/mL (≈ 11 µM)
- MIC (Enterococcus faecium): > 128 µg/mL
- MIC (Enterococcus faecalis [5]): 16 µg/mL (≈ 11 µM)
- MIC (Enterococcus gallinarum): 8 µg/mL (≈ 5.52 µM)
- MIC (Streptococcus pneumoniae): 0.12 µg/mL (≈ 0.0828 µM)
- MIC (Clostridioides difficile): 0.12 µg/mL (≈ 0.0828 µM)
- MIC (Moraxella catarrhalis): > 32 µg/mL
- MBIC (Enterococcus faecalis [6]): 64 µg/mL
- inhibition (INH) (Enterococcus faecalis [7]): 98%
- Activity (Enterococcus faecalis [8]): 64 µg/mL
- inhibition (INH) (Enterococcus faecalis [9]): 100%

SMILES: CCSSCCNC(=O)[C@H]1NC(=O)[C@H]2NC(=O)[C@H](NC(=O)[C@@H]3NC(=O)[C@H](CC(N)=O)NC(=O)[C@H](NC(=O)[C@@H](CC(C)C)NC)[C@H](O)c4ccc(c(Cl)c4)Oc4cc3cc(c4O[C@@H]3O[C@H](CO)[C@@H](O)[C@H](O)[C@H]3O[C@H]3C[C@](C)(N)[C@H](O)[C@H](C)O3)Oc3ccc(cc3Cl)[C@H]2O)c2ccc(O)c(c2)-c2c(O)cc(O)cc21
- MIC (Staphylococcus aureus [1]): 1 µg/mL (≈ 0.638 µM)
- MIC (Staphylococcus aureus [2]): 1 µg/mL (≈ 0.638 µM)
- MIC (Enterococcus faecalis [5]): 1 µg/mL (≈ 0.638 µM)
- MIC (Enterococcus gallinarum): 8 µg/mL (≈ 5.1 µM)
- MBIC (Enterococcus faecalis [6]): 32 µg/mL
- inhibition (INH) (Enterococcus faecalis [7]): 100%
- Activity (Enterococcus faecalis [8]): 32 µg/mL
- inhibition (INH) (Enterococcus faecalis [9]): 100%
